Source: patent publication US20100254940A1, “Compositions and Methods for Regulating an Immune Response in a Subject” (INNATE PHARMA, S.A., priority 2002, published 2010)

How the values were obtained:
TNFα = assay: Serum TNFα by ELISA after BrHPP injection in cynomolgus monkeys; assay type: in vivo, cynomolgus monkeys (M. fascicularis)
Procedure: (§1) Serum cytokines (TNFα and INFg) were detected and quantified with the BIOSOURCE Cytoscreen™ ELISA monkey TNFa and Cytoscreen™ ELISA monkey INFg respectively (purchased from CliniSciences, Montrouge, France) according to the manufacturer's instructions.
(§2) Samples of sera were collected from group 2 animals during the first dose range assay (0 to 80 mg/kg) just before injection then 1 and 4 hours post injection, and assayed by ELISA specific for TNFa and IFNg.
The objective of this GLP study was to explore further the pharmaco-dynamic properties of Phosphostim (BrHPP, 200 mg; GMP batch) alone and in combination with IL-2 following several i.v. administrations to cynomolgus monkeys. In particular, this study was planned to evaluate: • A dose-effect relationship between Phosphostim injection and γδ T cell peripheral amplification; • The pharmaco-dynamic effect of a second, third and up to fifth administration of Phosphostim in male and female animals; • The functionality of in vivo induced γδ T cells, by dosing systemic cytokines after Phosphostim treatment; • The effect of treatment with IL-2 alone and to validate the selected dose of 0.6 million IU/day/animal.
(§3) Phosphostim was administered i.v., as slow infusions (50 ml in 30 minutes), at various dose levels to five groups of two animals (one male+one female). Males received two successive injections of BrHPP (Day 0 and Day 22) before sacrifice and females four injections (Days 0, 22, 52 and 84). Two females, selected upon their level of response to the 4th treatment, received a supplementary injection of BrHPP alone at Day 91, during γδ cell peripheral increase, for systemic cytokine dosages.

Vγ9Vδ2 T cells = assay: Expansion of peripheral blood Vγ9Vδ2 T cells from PBMCs of mRCC patients with BrHPP and IL2; assay type: cell-based, human; settings: 3 μM BrHPP + IL2, 15 days; 7 patients out of 12
Procedure: Blood samples from 12 RCC patients (50 ml) were collected just before or no more than 2 months after the nephrectomy. PBMCs were isolated by centrifugation on Ficoll-Hypaque density gradient (Amersham Biosciences). PBMCs from one healthy volunteer was used as control.
Ten million PBMCs were cultured at 2×10^6/ml in 24 well plate in RPMI 1640 supplemented with 10% v/v fetal calf serum (Fetal Clone irradiated, Hyclone).
Polyclonal Vγ9Vδ2 T cell lines were specifically expanded in presence of 3 μM BrHPP molecule (batch INPA-0214) and 100 IU/ml IL2 during 15 days.
Every three days, the volume corresponding to half culture medium was replaced by fresh medium containing only 200 IU/ml IL2
Before in vitro culture, phenotype of 2×10^5 PBMCs from RCC patients was analyzed using the following combinations of fluorescein isothiocyanate (FITC), phycoerythrin (PE) and phycoreythrin-cyanin 5 (PC5) conjugated antibodies to determine the NK, αβ and γδ T cells population (all purchased from Beckman-Coulter): CD3-PC5/Vδ2-FITC/IgG1-PE, CD8-PE, CD56-PE. At day 15 of the culture, a triple staining was performed on the expanded Vδ9Vδ2 T cells bulk. The following antibodies combinations were performed: […]

[1] = Half life of the molecule in primate sera; assay type: in vitro ADME; settings: 37° C.
Procedure: In vitro, we and others (Lang, 1995) have shown that the activation of Vg9Vd2 cells occurs within minutes after the addition of the molecule. Two mechanisms may prevent the molecule to be active in vivo i) the likely rapid renal clearance of such a small molecule and ii) a degradation process in vivo. […] Nevertheless, the concentration of the molecule, injected by intravenous route in relatively high amount, should be maintained beyond the 20 nM EC50 for a significant time, if no additional, blood cell or organ related degradation process occurs in vivo.

γδ T cell = assay: In vitro TNFα release assay, γδ T cell amplification from human PBMCs (in the presence of rhIL2); assay type: cell-based; settings: TNFα release assay; human PBMCs, rhIL2
Procedure: The in vitro biological activity of γδ T cell amplification from human PBMCs (in the presence of rhIL2) was assessed using a TNFα release assay.
Cytokine secretion and cytolytic activity can be assessed using any appropriate in vitro assay, or those provided in the examples herein. For example, cytokine secretion can be determined according to the methods described in Espinosa et al. (J. Biol. Chem., 2001, Vol. 276, Issue 21, 18337-18344), describing measurement of TNF-α release in a bioassay using TNF-α-sensitive cells. Briefly, 10^4 γδT cells/well were incubated with stimulus plus 25 units of IL2/well in 100 μl of culture medium during 24 h at 37° C. Then, 50 μl of supernatant were added to 50 μl of WEHI cells plated at 3×10^4 cells/well in culture medium plus actinomycin D (2 μg/ml) and LiCl (40 mM) and incubated for 20 h at 37° C. Viability of the TNF-α-sensitive cells and measured with a 3-(4,5-dimethylthiazol-2-yl)-2,5-diphenyltetrazolium bromide assay. 50 μl of 3-(4,5-dimethylthiazol-2-yl)-2,5-diphenyltetrazolium bromide (Sigma; 2.5 mg/ml in phosphate-buffered saline) per well were added, and after 4 h of incubation at 37° C., 50 μl of solubilization buffer (20% SDS, 66% dimethyl formamide, pH 4.7) were added, and absorbance (570 nm) was measured. Levels of TNF-α release were then calculated from a standard curve obtained using purified human rTNF-α (PeproTech, Inc., Rocky Hill, N.J.). Interferon-γ released by activated T cells was measured by a sandwich enzyme-linked immunosorbent assay. 5×10^4 γδT cells/well were incubated with stimulus plus 25 units of IL2/well in 100 μl of culture medium during 24 h at 37° C. Then, 50 μl of supernatant were harvested for enzyme-linked immunosorbent assay using mouse monoclonal antibodies (BIOSOURCE, Camarillo, Calif.). […]
BrHPP and HDMAPP bioactivity were compared using in vitro and in vivo assays. The in vitro biological activity of γδ T cell amplification from human PBMCs (in the presence of rhIL2) was assessed using a TNFα release assay.

IFNγ = assay: Serum IFNγ by ELISA after BrHPP injection in cynomolgus monkeys; assay type: in vivo, cynomolgus monkeys (M. fascicularis)
Procedure: as §1, §2, §3

[2] = fifth injection 80 mg/kg without IL2 at peak after fourth injection

## 3-(bromomethyl)-3-butanol-1-yl-diphosphate [BrHPP]
TNFα; 80 mg/kg, 4 hours post BrHPP injection
  serum level of TNFa: not further detectable
TNFα; 80 mg/kg, one hour after injection
  TNFα in the sera: detectable
TNFα; fifth injection 80 mg/kg without IL2, 4 hours post injection
  TNFa level: undetectable at 4 hours post injection
TNFα; [2]
  TNFa in the sera: detectable
Vγ9Vδ2 T cells
  patients presenting a Vγ9Vδ2 T cells amplification: 58%
[1]
  half life of the molecule in primate sera: about one
γδ T cell
  EC50: ~30 nM
IFNγ; [2]
  IFNg in the sera: detectable at one hour post injection, and increased at 4 hours post injection
IFNγ; first dose range assay 0 to 80 mg/kg, 1 and 4 hours post injection
  Assessment of IFNγ: Did not Give Significant Results
